These compounds were tested on RSV A2 (assay: Screening for RSV inhibition using Viral ToxGlo assay (cytopathic effect inhibition in HEp-2 cells)). Conditions: human respiratory syncytial virus; RSV A2 in HEp-2 cells, MOI 0.5, 72h p.i., cytopathic effect inhibition relative to virus control, Viral ToxGlo luminescence.
Format: cell-based, Respiratory Syncytial Virus (RSV)
How it was run: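 HEp-2 cells in 2% FBS medium infected with RSV A2 right after compound addition (max 1% DMSO), uninfected wells used for cytotoxicity. After 72 h p.i. at 37 °C/5% CO2, cell viability read by Viral ToxGlo luminescence as measure of cytopathic effect.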

SMILES	EC50
CC(C)CC1(NC(=O)c2cccc(Nc3ccc(C(=O)N=C4NCCN4)cc3C3CC3)c2)CC1 [Compound 107, 3-cyclopropyl-N-[(2Z)-imidazolidin-2-ylidene]-4-[(3-{[1-(2-methylpropyl)cyclopropyl]carbamoyl}phenyl)amino]benzamide]	14 nM
O=C(N=C1NCCN1)c1ccc(Nc2cccc(C(=O)NCC3CCCO3)c2Cl)c(C2CC2)c1 (centres unmarked) [Compound 109, 4-[(2-chloro-3-{[(oxolan-2-yl)methyl]carbamoyl}phenyl)amino]-3-cyclopropyl-N-[(2E)-imidazolidin-2-ylidene]benzamide]	45 nM
CC(=O)N1CCN/C1=N\C(=O)c1ccc(Nc2cccc(NC(=O)C(C)C)c2)c(C2CC2)c1 [Compound 110, N-[(2E)-1-acetylimidazolidin-2-ylidene]-3-cyclopropyl-4-{[3-(2-methylpropanamido)phenyl]amino}benzamide]	324 nM
CC(C)(C)C1(NC(=O)c2cccc(Nc3ccc(C(=O)N=C4NCCN4)cc3C3CC3)c2)CC1 [Compound 111, 4-({3-[(1-tert-butylcyclopropyl)carbamoyl]phenyl}amino)-3-cyclopropyl-N-[(2Z)-imidazolidin-2-ylidene]benzamide]	30.4 nM
CC(C)NC(=O)c1cc(C#N)cc(Nc2ccc(C(=O)N=C3NCCN3)cc2C2CC2)c1 [Compound 112, 4-({3-cyano-5-[(propan-2-yl)carbamoyl]phenyl}amino)-3-cyclopropyl-N-[imidazolidin-2-ylidene]benzamide]	710 nM
CC(C)C(=O)Nc1cccc(Nc2ccc(C(=O)N=C3NCCN3CC(F)F)cc2C2CC2)c1 [Compound 113, 3-cyclopropyl-N-[1-(2,2-difluoroethyl)imidazolidin-2-ylidene]-4-{[3-(2-methylpropanamido)phenyl]amino}benzamide]	59.9 nM
O=C(N=C1NCCN1)c1ccc(Nc2cccc(C(=O)NC3(C(F)(F)F)CC3)c2Cl)c(C2CC2)c1 [Compound 114, 4-[(2-chloro-3-{[1-(trifluoromethyl)cyclopropyl]carbamoyl}phenyl)amino]-3-cyclopropyl-N-[imidazolidin-2-ylidene]benzamide]	32.6 nM
O=C(N=C1NCCN1)c1ccc(Nc2cccc(C(=O)N3CCOCC3)c2C(F)(F)F)c(C2CC2)c1 [Compound 115, 3-cyclopropyl-N-[imidazolidin-2-ylidene]-4-{[3-(morpholine-4-carbonyl)-2-(trifluoromethyl)phenyl]amino}benzamide]	29.6 nM
O=C(N=C1NCCN1)c1ccc(Nc2cccc(C(=O)NC3CC3)c2C(F)(F)F)c(C2CC2)c1 [Compound 116, 3-cyclopropyl-4-f{[3-(cyclopropylcarbamoyl)-2-(trifluoromethyl)phenyl]amino}-N—[imidazolidin-2-ylidene]benzamide]	131 nM
CC1(NC(=O)c2cccc(Nc3c(F)cc(C(=O)N=C4NCCN4)cc3C3CC3)c2)CC1 [Compound 117, 3-cyclopropyl-5-fluoro-N-[imidazolidin-2-ylidene]-4-({3-[(1-methylcyclopropyl)carbamoyl]phenyl}amino)benzamide]	5.6 nM
O=C(N=C1NCCN1)c1ccc(Nc2cc(F)cc(C(=O)N3CCOCC3)c2Cl)c(C2CC2)c1 [Compound 118, 4-{[2-chloro-5-fluoro-3-(morpholine-4-carbonyl)phenyl]amino}-3-cyclopropyl-N-[imidazolidin-2-ylidene]benzamide]	27 nM
O=C(N=C1NCCN1)c1cc(F)c(Nc2cccc(C(=O)N3CCOCC3)c2)c(C2CC2)c1 [Compound 119, 3-cyclopropyl-5-fluoro-N-[imidazolidin-2-ylidene]-4-{[3-(morpholine-4-carbonyl)phenyl]amino}benzamide]	108 nM
O=C(N=C1NCCN1)c1ccc(Nc2cccc(C(=O)N3C[C@@H]4C[C@H]3CO4)c2Cl)c(C2CC2)c1 [Compound 120, 4-({2-chloro-3-[(1S,4S)-2-oxa-5-azabicyclo[2.2.1]heptane-5-carbonyl]phenyl}amino)-3-cyclopropyl-N—[imidazolidin-2-ylidene]benzamide]	19.5 nM
O=C(N=C1NCCN1)c1ccc(Nc2cccc(C(=O)N3CCOC(C(F)(F)F)C3)c2Cl)c(C2CC2)c1 (centres unmarked) [Compound 121, 4-({2-chloro-3-[2-(trifluoromethyl)morpholine-4-carbonyl]phenyl}amino)-3-cyclopropyl-N—[imidazolidin-2-ylidene]benzamide]	5.1 nM
O=C(N=C1NCCN1)c1ccc(Nc2cccc(C(=O)N3CCOCC3C(F)(F)F)c2Cl)c(C2CC2)c1 (centres unmarked) [Compound 122, 4-({2-chloro-3-[3-(trifluoromethyl)morpholine-4-carbonyl]phenyl}amino)-3-cyclopropyl-N—[imidazolidin-2-ylidene]benzamide]	7.8 nM
CC1(NC(=O)c2ccnc(Nc3ccc(C(=O)N=C4NCCN4)cc3C3CC3)c2Cl)CC1 [Compound 123, 3-chloro-2-[(2-cyclopropyl-4-{[imidazolidin-2-ylidene]carbamoyl}phenyl)amino]-N-(1-methylcyclopropyl)pyridine-4-carboxamide]	83 nM

SMILES	EC50
CC1(NC(=O)c2cccc(Nc3c(F)cc(C(=O)N=C4NCCN4)cc3C3CCCO3)c2)CC1 (centres unmarked) [Compound 125, 3-fluoro-N—[imidazolidin-2-ylidene]-4-({3-[(1-methylcyclopropyl)carbamoyl]phenyl}amino)-5-(oxolan-2-yl)benzamide]	19.1 nM
N#CC1(NC(=O)c2cccc(Nc3c(F)cc(C(=O)N=C4NCCN4)cc3C3CC3)c2)CC1 [Compound 127, 4-({3-[(1-cyanocyclopropyl)carbamoyl]phenyl}amino)-3-cyclopropyl-5-fluoro-N-[imidazolidin-2-ylidene]benzamide]	101 nM
CC(C)NC(=O)c1cc(F)cc(Nc2c(F)cc(C(=O)N=C3NCCN3)cc2C2CC2)c1 [Compound 128, 3-cyclopropyl-5-fluoro-4-({3-fluoro-5-[(propan-2-yl)carbamoyl]phenyl}amino)-N-[imidazolidin-2-ylidene]benzamide]	13.2 nM
CC1(NC(=O)c2cccc(Nc3c(F)cc(C(=O)N=C4NCCN4)cc3C3CC3)c2Cl)CC1 [Compound 129, 4-({2-chloro-3-[(1-methylcyclopropyl)carbamoyl]phenyl}amino)-3-cyclopropyl-5-fluoro-N-[imidazolidin-2-ylidene]benzamide]	4.3 nM
CC(C)NC(=O)c1cccc(Nc2c(F)cc(C(=O)N=C3NCCN3)cc2C2CC2)c1F [Compound 130, 3-cyclopropyl-5-fluoro-4-({2-fluoro-3-[(propan-2-yl)carbamoyl]phenyl}amino)-N-[imidazolidin-2-ylidene]benzamide]	7.3 nM
CC(C)NC(=O)c1cccc(Nc2cc(F)c(C(=O)N=C3NCCN3)cc2C2CC2)c1 [Compound 131, 5-cyclopropyl-2-fluoro-N-[imidazolidin-2-ylidene]-4-({3-[(propan-2-yl)carbamoyl]phenyl}amino)benzamide]	77.9 nM
CC1(NC(=O)c2cccc(Nc3ccc(C(=O)N=C4NCCN4)cc3C(C)(C)C)c2Cl)CC1 [Compound 132, 3-tert-butyl-4-({2-chloro-3-[(1-methylcyclopropyl)carbamoyl]phenyl}amino)-N-[imidazolidin-2-ylidene]benzamide]	23.6 nM
O=C(N=C1NCCN1)c1cc(F)c(Nc2cccc(C(=O)N3CCOCC3)c2Cl)c(C2CCOC2)c1 (centres unmarked) [Compound 134, 4-{[2-chloro-3-(morpholine-4-carbonyl)phenyl]amino}-3-fluoro-N-[imidazolidin-2-ylidene]-5-(oxolan-3-yl)benzamide]	39.2 nM
CC1(NC(=O)c2cccc(Nc3c(F)cc(C(=O)N=C4NCCN4)cc3C3CCCO3)c2Cl)CC1 (centres unmarked) [Compound 135, 4-({2-chloro-3-[(1-methylcyclopropyl)carbamoyl]phenyl}amino)-3-fluoro-N-[imidazolidin-2-ylidene]-5-(oxolan-2-yl)benzamide]	28.7 nM
CC1(NC(=O)c2ccnc(Nc3c(F)cc(C(=O)N=C4NCCN4)cc3C3CC3)c2Cl)CC1 [Compound 136, 3-chloro-2-[(2-cyclopropyl-6-fluoro-4-{[imidazolidin-2-ylidene]carbamoyl}phenyl)amino]-N-(1-methylcyclopropyl)pyridine-4-carboxamide]	32 nM
CC1(NC(=O)c2cccc(Nc3ccc(C(=O)N=C4NCCN4)cc3C3CCCO3)c2Cl)CC1 (centres unmarked) [Compound 137, 4-({2-chloro-3-[(1-methylcyclopropyl)carbamoyl]phenyl}amino)-N-[imidazolidin-2-ylidene]-3-(oxolan-2-yl)benzamide]	204 nM
CC(C)NC(=O)c1cc(F)cc(Nc2ccc(C(=O)N=C3NCCN3)cc2C2CC2)c1F [Compound 138, 3-[(2-cyclopropyl-4-{[imidazolidin-2-ylidene]carbamoyl}phenyl)amino]-2,5-difluoro-N-(propan-2-yl)benzamide]	233 nM
CC1(NC(=O)c2cc(F)cc(Nc3ccc(C(=O)N=C4NCCN4)cc3C3CC3)c2F)CC1 [Compound 139, 3-[(2-cyclopropyl-4-{[imidazolidin-2-ylidene]carbamoyl}phenyl)amino]-2,5-difluoro-N-(1-methylcyclopropyl)benzamide]	152 nM
CC1(NC(=O)c2cccc(Nc3ccc(C(=O)N=C4NCCN4)cc3C3CCCO3)c2)CC1 (centres unmarked) [Compound 140, N-[imidazolidin-2-ylidene]-4-({3-[(1-methylcyclopropyl)carbamoyl]phenyl}amino)-3-(oxolan-2-yl)benzamide]	227 nM
N#CC1(C(=O)Nc2cccc(Nc3ccc(C(=O)N=C4NCCN4)cc3C3CC3)c2)CC1 [Compound 141, 4-{[3-(1-cyanocyclopropaneamido)phenyl]amino}-3-cyclopropyl-N-[imidazolidin-2-ylidene]benzamide]	150 nM
O=C(N=C1NCCN1)c1cc(F)c(Nc2cccc(C(=O)N3CCOCC3C(F)(F)F)c2)c(C2CC2)c1 (centres unmarked) [Compound 142, 3-cyclopropyl-5-fluoro-N-[imidazolidin-2-ylidene]-4-({3-[3-(trifluoromethyl)morpholine-4-carbonyl]phenyl}amino)benzamide]	41.4 nM

From US12617756B2 (ABIVAX, priority 2019, dated 2026)
